Measurements published in publication PMC9525908, “α-Crystallin chaperone mimetic drugs inhibit lens γ-crystallin aggregation: Potential role for cataract prevention” (The Journal of Biological Chemistry, 2022).
Positions count from the first letter of the chain named. Like-named read-outs stand apart in the source and are kept apart here.

Experiments:
Format in all cases: biochemical
HγD = target: T1, HγD (Homo sapiens, UniProt P07320); assay: Thermal aggregation (72 °C) turbidity assay, recombinant HγD; conditions: for inhibition at 125 µM / Effect on HγD at 2.0 mg/ml and 20 min: 20 min; for inhibition at 125 µM: 75 μM protein, 125 μM or less inhibitor (1.7:1); for Effect on HγD aggregation at low protein / Effect on HγD at 2.0 mg/ml and 20 min: 72 °C
T1 construct: made in house; host or cells: E. coli BL21(DE3) pLysS, pET3d vector
T1 sequence (P07320 1-174): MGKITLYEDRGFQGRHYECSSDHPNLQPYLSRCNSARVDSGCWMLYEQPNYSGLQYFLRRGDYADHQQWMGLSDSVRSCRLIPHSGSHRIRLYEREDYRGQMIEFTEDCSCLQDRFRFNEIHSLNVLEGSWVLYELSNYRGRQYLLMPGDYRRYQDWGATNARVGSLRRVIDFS
Method: For refinement of the aforementioned screen, these compounds were tested at concentrations varying from 50 to 500 μM and 1.5 mg/ml concentration of recombinant HγD, human gamma S (HγS), its deamidation mutants γS_N14, γS_N76, γS_N143 and its triple mutant γSTM (Fig. 1F). In addition, other drugs and compounds that tested positive in the initial screen were also included, such as escin (E), hematein (I), citric acid (CA), docusate sodium (DS), and sennoside A (S) (Fig. S1B). […] For a review, see the study by Roskamp et al. ([38]). […] Thus, drug C and drug G emerged as the strongest antidenaturation/aggregation and potential anticataract drugs. For the mechanistic studies below these two compounds together with either drug M, chosen mostly as negative control, or the entire set of six compounds were used for comparison purpose, whereby the words “drug” or “compound” are used interchangeably in the studies later.
(§1) For end-point assays, HγD and MγS (1 mg/ml, 100 μl) in 50 mM K3PO4 buffer (pH 7.2) in set of triplicates in transparent flat bottom 96-well plates were heated at 72 °C for 20 min in the presence and absence of selected drugs at varying concentrations. Absorbance was measured at 600 nm with a SpectraMax iD5 (Molecular Devices).
HγD protein (2.5 mg/ml buffer A) was incubated at 72 °C for 20 min without or with 100 or 400 μM drug G or C in buffer A. Final DMSO concentration was 5% in all samples. […] Therefore, samples with and without 400 μM drug G were chosen for identification of drug G-induced miscleavage sites upon digestion with 25:1 protein:trypsin ratio (sequencing grade modified trypsin; Promega) in buffer A. After 4 h, samples were frozen at −80 °C until processed for determination of miscleavage sites using proteomics analysis. LC–MS/MS analysis was performed on an Orbitrap Eclipse mass spectrometer (Thermo Fisher Scientific) coupled with a Waters nanoAcquity UPLC system (Waters) in total 90 min run using a linear gradient range from 0 to 42% solvent B (0.1% formic acid in acetonitrile) versus solvent A (0.1% formic acid in water) at a flow rate of 300 nl/min. MS1 full mass spectra were acquired in the Orbitrap mass analyzer at the resolution of 120 K. MS/MS tandem mass spectra were generated in the ion trap mass analyzer by collision-induced dissociation of peptide ions at a normalized collision energy of 35%. The resulting MS/MS spectra were searched against human gamma D protein database using Mass Matrix software (MassMatrix, Inc) with the mass errors of 10 ppm and 0.8 Da for MS1 and MS/MS scans, respectively. The oxidation of methionine was set for variable modifications, and three miscleavages were allowed for the search.
(§2) Final DMSO concentration was 5% including in control samples. Microtiter plates were first incubated for 10 min at 72 °C and reincubated for 10 more min. Absorbance was measured at both 10 and 20 min total incubation time.

HγS_N143D = target: T2, HγS_N143D (Homo sapiens, UniProt P22914, N144D); assay: Thermal aggregation (72 °C, 20 min) turbidity assay, HγS_N143D; conditions: 20 min, read-out: % Suppression; for inhibition: HγS_N143D, 75 μM protein, 72 °C 20 min
T2 sequence (P22914 1-178 N144D): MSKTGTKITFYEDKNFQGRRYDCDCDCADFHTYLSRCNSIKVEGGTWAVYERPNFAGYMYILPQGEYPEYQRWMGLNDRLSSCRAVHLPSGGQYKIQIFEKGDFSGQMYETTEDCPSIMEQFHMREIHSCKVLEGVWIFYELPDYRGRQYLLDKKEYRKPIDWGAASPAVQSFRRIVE
Text: (§3) For a review, see the study by Roskamp et al. ([38]). […] For the mechanistic studies below these two compounds together with either drug M, chosen mostly as negative control, or the entire set of six compounds were used for comparison purpose, whereby the words “drug” or “compound” are used interchangeably in the studies later.

HγS_N14/76/143D = target: T3, HγS_N14/76/143D (Homo sapiens, UniProt P22914, N144D/N15D/N77D); assay: Thermal aggregation (72 °C, 20 min) turbidity assay, HγS triple mutant; conditions: read-out: % Suppression; for inhibition: HγS_N14/76/143D, 75 μM protein, 72 °C 20 min
T3 sequence (P22914 1-178 N15D/N77D/N144D): T2 sequence (P22914 1-178 N144D) with N15D, N77D
Text: as §3

WT-MγS [1] = target: T4, WT-MγS (Mus musculus, UniProt O35486); assay: End-point heat-mediated turbidity assay, WT-MγS; conditions: for inhibition at 500 µM: read-out: Percent Inhibition of heat mediated aggregation, WT-MGS; for Effect on MγS absorbance: 400 μM drug, 72 °C, protein above 0.5 mg/ml
T4 construct: made in house; host or cells: E. coli BL21(DE3) pLysS, pET17b vector
T4 sequence (O35486 1-178): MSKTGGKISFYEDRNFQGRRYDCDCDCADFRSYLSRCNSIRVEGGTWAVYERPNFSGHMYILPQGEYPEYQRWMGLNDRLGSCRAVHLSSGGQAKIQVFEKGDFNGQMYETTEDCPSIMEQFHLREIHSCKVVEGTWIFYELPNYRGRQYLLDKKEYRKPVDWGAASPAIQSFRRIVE
Method: as §1, with “Devices). […]” for “Devices).”
as §2

WT-MγS [2] = target: T4, WT-MγS; assay: Dynamic light scattering, WT-MγS; conditions: 400 μM drug; for Suppression of aggregate formation, DLS temperature scan: WT-MγS, 30–90 °C
Method: Efficacy of our selected drugs in preventing the formation of protein aggregates was measured by DLS. Measurements were performed on a Wyatt DynaPro Nanostar. For DLS temperature scan experiment, pure and filtered protein samples (1 mg/ml in 10 mM sodium phosphate buffer, pH 7.2) with and without drugs (400 μM) were analyzed by DLS over a temperature range of 30 to 90 °C. Multiple scans were run for every data point, and the results represent average of individual scans. DLS spectra were also recorded for the samples at the end point of turbidity assay.

[3] = HγD experiment 1, 72 °C 20 min, read-out: % Suppression
[4] = HγD experiment 2, 72 °C 20 min, read-out: % Suppression
[5] = 500 μM drug, end point of turbidity assay 72 °C 20 min
[6] = read-out: % Suppression, HγD experiment 1, 72 °C 20 min
[7] = read-out: % Suppression, HγD experiment 2, 72 °C 20 min

`COC(=O)/C=C/C(C)=C\C=C\C(C)=C\C=C\C=C(C)\C=C\C=C(C)\C=C\C(=O)O` [drug B, Bixin] gave an inhibition at 125 µM (HγD; [3]) of 63%, an inhibition at 125 µM (HγD; [4]) of 60% and an inhibition (HγS_N143D) of 25%. The inhibition (HγS_N14/76/143D) was 46%, the inhibition at 500 µM (WT-MγS [1]; [5]) was 55.5 ± 8.03% and the “Suppression of aggregate formation, DLS temperature scan” value (“Suppression of aggregate formation” below) (WT-MγS [2]) was “mild suppressive effects”.
In the case of `Cc1cc(C(C#N)c2ccc(Cl)cc2)c(Cl)cc1NC(=O)c1cc(I)cc(I)c1O` (stereo not drawn) [drug C, Closantel], the “Effect on HγD aggregation at low protein” value (HγD; 400 μM drug) is reported as “worsened HγD aggregation”, the “Effect on HγD at 2.0 mg/ml and 20 min” value (HγD; 400 μM drug) is reported as “no baseline change” and the inhibition at 125 µM (HγD; [6]) is reported as 65%. It also gave an inhibition at 125 µM (HγD; [7]) of 73%, an inhibition at 125 µM (HγS_N143D) of 52% and an inhibition at 125 µM (HγS_N14/76/143D) of 76%. For the same molecule, the “Effect on MγS absorbance” value (WT-MγS [1]) was “blocked absorbance”, the inhibition at 500 µM (WT-MγS [1]) was 80.5 ± 1.87% and the “Percent Mass Peak 1” value (WT-MγS [2]; WT-MγS 45 μM, 72 °C 20 min) was 100%. For the same molecule, the “Radius (nm) Peak 1” value (WT-MγS [2]; WT-MγS 45 μM, 72 °C 20 min) was 86.6 nm and the “Suppression of aggregate formation” value (WT-MγS [2]) was “strong suppressive effects”.
Molecule `CC(C)=CCCC1(C)C=Cc2c(O)c3c(c(CC=C(C)C)c2O1)OC12C(=CC4CC1C(C)(C)OC2(C/C=C(/C)C(=O)O)C4O)C3=O` (stereo not drawn) [drug D, dihydrogambogic acid] has an inhibition at 125 µM (HγD; [6]) of 66%, an inhibition at 125 µM (HγD; [7]) of 78% and an inhibition at 125 µM (HγS_N143D) of 30%. For the same molecule, the inhibition at 125 µM (HγS_N14/76/143D) was 32%, the inhibition at 500 µM (WT-MγS [1]) was 80.4 ± 0.44% and the “Suppression of aggregate formation” value (WT-MγS [2]) was “mild suppressive effects”.
For `CC(C)=CCC[C@]1(C)C=Cc2c(O)c3c(c(CC=C(C)C)c2O1)O[C@]12C(=C[C@@H]4C[C@H]1C(C)(C)O[C@@]2(C/C=C(/C)C(=O)O)C4=O)C3=O` [drug G, Gambogic acid], the “Effect on HγD aggregation at low protein” value (HγD; 400 μM drug) was “worsened HγD aggregation”, the “Effect on HγD at 2.0 mg/ml and 20 min” value (HγD; 400 μM drug) was “no baseline change” and the inhibition at 125 µM (HγD; [6]) was 69%. For the same molecule, the inhibition at 125 µM (HγD; [7]) was 75%, the Turbidity suppression (HγD; HγD 2.5 mg/ml, 400 μM drug, 72 °C 20 min, 5% DMSO) was “markedly suppressed turbidity” and the inhibition at 125 µM (HγS_N143D) was 48%. The inhibition at 125 µM (HγS_N14/76/143D) was 89%, the “Effect on MγS absorbance” value (WT-MγS [1]) was “blocked absorbance” and the inhibition at 500 µM (WT-MγS [1]) was 80.5 ± 2.45%. For the same molecule, the “Percent Mass Peak 1” value (WT-MγS [2]; WT-MγS 45 μM, 72 °C 20 min) was 100%, the “Radius (nm) Peak 1” value (WT-MγS [2]; WT-MγS 45 μM, 72 °C 20 min) was 77.9 nm and the “Suppression of aggregate formation” value (WT-MγS [2]) was “strong suppressive effects”.
`O=C(O)CCCCCCCCCCCC[C@@H]1C=CCC1` [drug M, Chaulmoogric acid] gave an inhibition at 125 µM (HγD; [3]) of 38%, an inhibition at 125 µM (HγD; [4]) of 73% and an inhibition (HγS_N143D) of 25%. For the same molecule, the inhibition (HγS_N14/76/143D) was 46%, the inhibition at 500 µM (WT-MγS [1]; [5]) was 46.3 ± 4.23% and the “Percent Mass Peak 1” value (WT-MγS [2]; WT-MγS 45 μM, 72 °C 20 min) was 1.4%. For the same molecule, the “Percent Mass Peak 2” value (WT-MγS [2]; WT-MγS 45 μM, 72 °C 20 min) was 98.6%, the “Radius (nm) Peak 1” value (WT-MγS [2]; WT-MγS 45 μM, 72 °C 20 min) was 622.0 nm and the “Radius (nm) Peak 2” value (WT-MγS [2]; WT-MγS 45 μM, 72 °C 20 min) was 6200.7 nm. For the same molecule, the “Suppression of aggregate formation” value (WT-MγS [2]) was “no suppression”.
In the case of `Oc1c(Cl)cc(Cl)c(Cl)c1Cc1c(O)c(Cl)cc(Cl)c1Cl` [drug X, Hexachlorophene], the inhibition at 125 µM (HγD; [3]) is reported as 61%, the inhibition at 125 µM (HγD; [4]) is reported as 47% and the inhibition at 125 µM (HγS_N143D) is reported as 50%. The inhibition at 125 µM (HγS_N14/76/143D) was 71%, the inhibition at 500 µM (WT-MγS [1]) was 39.7 ± 3.42% and the “Suppression of aggregate formation” value (WT-MγS [2]) was “mild suppressive effects”.
